# Patent US20240252516A1, “COMBINATION BPH THERAPY WITH FEXAPOTIDE TRIFLUTATE, A 5-ARI, AND AN ALPHA BLOCKER” (Nymox Corporation, priority 2023, published 2024)
# Ends that are not written are not given here.
# Assays:
# patients with BPH = assay: Clinical trial in men with BPH: International Prostate Symptom Score (IPSS) change from baseline; format: in vivo, human; conditions: oral medication together with placebo PBS injection, >2 years after treatment
# Experimental: Clinical trials were conducted on numerous individuals having BPH. All protocols were done in accordance with applicable regulations, and carried out by physicians.
# In a study of 978 men, patients with BPH were first administered a course of antibiotics for a period of 2-4 weeks, and then given an intraprostatic injection of either a) 10 ml of FT in phosphate buffered saline (concentration of 0.25 mg/ml), pH 7.2 (“PBS”) or b) PBS alone, under double-blind conditions by a urologist in an office setting under ultrasound guidance. Each patient was followed for a number of years with regular physical examinations, laboratory tests, and evaluations of symptoms. Symptomatic evaluation was measured by the International Prostate Symptom Score (IPSS) which is a quantitative scale used to gauge prostatic symptomatic improvement or worsening. The IPSS quantifies the following: 1) incomplete bladder emptying after urination; 2) frequent urination; 3) stopping and starting during urination; 4) urgent need to urinate; 5) weakness of urinary stream; 6) need to push or strain during urination; 7) need to urinate after going to sleep at night (nocturia). […]
# Using the results from the above tables, the average mean IPSS improvement of the respective medications, or combinations of medications can be determined, as well as the percent improvement in mean IPSS when compared to the average of the actives. […]
# [1] = test system: benign prostatic hyperplasia; conditions: McConnell et al.; cited from earlier work
# BPH patients = conditions: CombAT trial, after 2 years; cited from earlier work
# 5α-reductase = conditions: blood; cited from earlier work
# [2] = test system: α1- than α2-adrenergic receptors; conditions: α1 versus α2 selectivity; cited from earlier work
# [3] = test system: prostate glandular epithelial cells; assay: Tissue culture genetic array, in vitro pathway activation; format: cell-based
# Source text: FT is a new molecular entity which in vitro stimulates caspase pathways (activation of caspases 7, 8, and 10, caspase recruitment domains 6, 11, and 14, and DIABLO), tumor necrosis factor pathways (activation of TNF1, TNFSF6, TNFSF8, TNFSF9, CD70 ligands, and TNFRSF19L, TNFRSF25, TRAF2, TRAF3, TRAF4, TRAF6 receptors), and BCL pathways (activation of BIK, HRK, BCL2L10 and BCL3) in prostate glandular epithelial cells, based on tissue culture genetic array data. FT selectively causes loss of cell membrane integrity, mitochondrial metabolic arrest, depletion of RNA, DNA lysis and aggregation, and cell fragmentation and cell loss. The apoptotic process leads to typical ultrastructural progressive changes of membranous disruption and swelling, progressively deepening nuclear invaginations with eventual membranous bleb formations and cell death and fragmentation into apoptotic bodies. Histologically, typical apoptotic changes with positive immunohistochemical staining of markers for apoptosis are found throughout the injected areas for up to several weeks after treatment.
compound,measurement,setting,value
"CN1CC(=O)N2[C@H](c3ccc4c(c3)OCO4)c3[nH]c4ccccc4c3C[C@@H]2C1=O [PDE5 Inhibitor, tadalafil]","Mean IPSS Improvement, oral meds alone",patients with BPH,4.67
"COc1cc2nc(N3CCN(C(=O)C4COc5ccccc5O4)CC3)nc(N)c2cc1OC (centres unmarked) [doxazosin, 1-(4-amino-6,7-dimethoxy-2-quinazolinyl)-4-[(2,3-dihydro-1,4-benzodioxin-2-yl)carbonyl]piperazine]",long term (4 year) mean IPSS improvement,[1],6.6
"C[C@]12C=CC(=O)N[C@@H]1CC[C@@H]1[C@@H]2CC[C@]2(C)[C@@H](C(=O)Nc3cc(C(F)(F)F)ccc3C(F)(F)F)CC[C@@H]12 [dutasteride, 17β-N-(2,5-bis(Trifluoromethyl))phenylcarbamoyl-4-aza-5α-androst-1-en-3-one]",mean decrease in IPSS from baseline,BPH patients,4.9
same,reduction in circulating DHT levels,5α-reductase,up to 98%
CC(C)(C)NC(=O)[C@H]1CC[C@H]2[C@@H]3CC[C@H]4NC(=O)C=C[C@]4(C)[C@H]3CC[C@]12C [finasteride],long term (4 year) mean IPSS improvement,[1],5.6
same,reduction in circulating DHT levels,5α-reductase,65 to 70%
Cc1ccc(N(CC2=NCCN2)c2cccc(O)c2)cc1 [phentolamine],potency in inhibiting α1- than α2-adrenergic receptors,[2],three to five times more potent
"CCOc1ccccc1OCCN[C@H](C)Cc1ccc(OC)c(S(N)(=O)=O)c1 [tamsulosin, (R)-5-(2-{[2-(2-Ethoxyphenoxy)ethyl]amino}propyl)-2-methoxybenzene-1-sulfonamide]",mean decrease in IPSS from baseline,BPH patients,4.3
"Ile-Asp-Gln-Gln-Val-Leu-Ser-Arg-lle-Lys-Leu-Glu-lle-Lys-Arg-Cys-Leu (IDQQVLSRIKLEIKRCL; also: trifluoroacetate salt) [FT, 1: …]","BCL pathways (BIK, HRK, BCL2L10, BCL3)",[3],stimulates
same,"caspase pathways (caspases 7, 8, 10, caspase recruitment domains 6, 11, 14, DIABLO)",[3],stimulates
same,"tumor necrosis factor pathways (TNF1, TNFSF6, TNFSF8, TNFSF9, CD70 ligands, TNFRSF19L, TNFRSF25, TRAF2, TRAF3, TRAF4, TRAF6 receptors)",[3],stimulates
